# Assay results published in ChEMBL document CHEMBL4825686, “HTS-based discovery and optimization of novel positive allosteric modulators of the α7 nicotinic acetylcholine receptor” (Eur J Med Chem, 2021).
# Calls of active or inactive are those of the source. No cut-off for these calls is given here.
# Legend:
# Mus musculus [1] = assay: Cognitive enhancing effect in scopolamine-induced amnesia NMRI mouse model assessed as increase in recognition index at 1 to 10 mg/kg, ip administered 30 mins prior to scopolamine injection by Y-maze test; type: functional, organism-based; settings: dose 1-10 mg/kg
# [2] = Kinetic solubility of compound; type: physicochemical; settings: read-out: Kinetic_solubility
# [3] = biological target: T1, Neuronal acetylcholine receptor subunit alpha-7 (Homo sapiens, UniProt P36544); assay: Positive allosteric modulator activity at human alpha7 nAChR expressed in Flp-In-HEK293 cells co-expressing RIC-3 assessed as potentiation of PNU282987-induced calcium influx measured after 10 mins by FLIPR assay; type: cell-based, Flp-In-293; settings: read-out: EC50
# [4] = Metabolic stability in human liver microsomes assessed as intrinsic clearance at 1 uM measured per mg protein upto 40 mins; type: ADME, Microsome; settings: read-out: CLH
# [5] = Metabolic stability in Wistar rat liver microsomes assessed as intrinsic clearance at 1 uM measured per mg protein upto 40 mins; type: ADME, Microsome; settings: read-out: CLH
# [6] = Metabolic stability in NMRI mouse liver microsomes assessed as intrinsic clearance at 1 uM measured per mg protein upto 40 mins; type: ADME, Microsome; settings: read-out: CLH
# [7] = Drug uptake in NMRI mouse brain at 1 mg/kg, ip measured after 1 hr by HPLC-MS/MS analysis; type: ADME, organism-based; settings: read-out: Ct
# [8] = Drug uptake in NMRI mouse brain at 3 mg/kg, ip measured after 1 hr by HPLC-MS/MS analysis; type: ADME, organism-based; settings: read-out: Ct
# [9] = Drug uptake in NMRI mouse brain at 10 mg/kg, ip measured after 1 hr by HPLC-MS/MS analysis; type: ADME, organism-based; settings: read-out: Ct
# [10] = Plasma concentration in NMRI mouse at 1 mg/kg, ip measured after 1 hr by HPLC-MS/MS analysis; type: ADME, organism-based
# [11] = Plasma concentration in NMRI mouse at 3 mg/kg, ip measured after 1 hr by HPLC-MS/MS analysis; type: ADME, organism-based
# [12] = Plasma concentration in NMRI mouse at 10 mg/kg, ip measured after 1 hr by HPLC-MS/MS analysis; type: ADME, organism-based
# [13] = Ratio of drug level in NMRI mouse brain to plasma at 1 mg/kg, ip measured after 1 hr by HPLC-MS/MS analysis; type: ADME, organism-based; settings: read-out: BPR
# [14] = Ratio of drug level in NMRI mouse brain to plasma at 3 mg/kg, ip measured after 1 hr by HPLC-MS/MS analysis; type: ADME, organism-based; settings: read-out: BPR
# [15] = Ratio of drug level in NMRI mouse brain to plasma at 10 mg/kg, ip measured after 1 hr by HPLC-MS/MS analysis; type: ADME, organism-based; settings: read-out: BPR
# [16] = biological target: T1, Neuronal acetylcholine receptor subunit alpha-7; assay: Positive allosteric modulator activity at human alpha7 nAChR expressed in Flp-In-HEK293 cells co-expressing RIC-3 assessed as potentiation of PNU282987-induced calcium influx at 1 uM measured after 10 mins by FLIPR assay; type: cell-based; settings: Flp-In-293
# [17] = Mutagenicity in Salmonella typhimurium TA100 in presence of rat liver S9 fraction by AMES test; type: toxicity, subcellular; settings: salmonella enterica subsp. enterica serovar typhimurium
# [18] = Ratio of drug level in Wistar rat brain to plasma at 10 mg/kg, ip measured after 35 mins by HPLC-MS/MS analysis; type: ADME, organism-based; settings: read-out: BPR
# [19] = Ratio of drug level in Wistar rat brain to plasma at 3 mg/kg, ip measured after 35 mins by HPLC-MS/MS analysis; type: ADME, organism-based; settings: read-out: BPR
# [20] = Ratio of drug level in Wistar rat brain to plasma at 1 mg/kg, ip measured after 35 mins by HPLC-MS/MS analysis; type: ADME, organism-based; settings: read-out: BPR
# [21] = Apparent permeability across apical to basolateral side in vinblastine-treated human Caco-2 cells expressing P-glycoprotein at 1 uM incubated for 120 mins by HPLC analysis; type: ADME
# [22] = biological target: 5-hydroxytryptamine receptor 2B (Homo sapiens) (UniProt P41595); assay: Binding affinity to human recombinant 5-HT2B receptor assessed as displacement of radioligand at 10 uM by displacement binding assay
# Rattus norvegicus [23] = assay: Cognitive enhancing effect in Hannover Wistar rat assessed as increase in novel object recognition index at 1 to 10 mg/kg, po administered 30 mins prior to recognition trail by novel object recognition test; type: functional, organism-based; settings: dose 1-10 mg/kg
# [24] = Drug uptake in Wistar rat brain at 1 mg/kg, ip measured after 35 mins by HPLC-MS/MS analysis; type: ADME, organism-based; settings: read-out: Ct
# [25] = Drug uptake in Wistar rat brain at 3 mg/kg, ip measured after 35 mins by HPLC-MS/MS analysis; type: ADME, organism-based; settings: read-out: Ct
# [26] = Drug uptake in Wistar rat brain at 10 mg/kg, ip measured after 35 mins by HPLC-MS/MS analysis; type: ADME, organism-based; settings: read-out: Ct
# [27] = Plasma concentration in Wistar rat at 1 mg/kg, ip measured after 35 mins by HPLC-MS/MS analysis; type: ADME, organism-based
# [28] = Plasma concentration in Wistar rat at 3 mg/kg, ip measured after 35 mins by HPLC-MS/MS analysis; type: ADME, organism-based
# [29] = Plasma concentration in Wistar rat at 10 mg/kg, ip measured after 35 mins by HPLC-MS/MS analysis; type: ADME, organism-based
# [30] = Mutagenicity in Salmonella typhimurium TA1535 in presence of rat liver S9 fraction by AMES test; type: toxicity, subcellular; settings: salmonella enterica subsp. enterica serovar typhimurium
# [31] = Mutagenicity in Salmonella typhimurium TA98 in presence of rat liver S9 fraction by AMES test; type: toxicity, subcellular; settings: salmonella enterica subsp. enterica serovar typhimurium
# [32] = Mutagenicity in Salmonella typhimurium TA98 in absence of rat liver S9 fraction by AMES test; type: toxicity; settings: salmonella enterica subsp. enterica serovar typhimurium
# [33] = Mutagenicity in Salmonella typhimurium TA100 in absence of rat liver S9 fraction by AMES test; type: toxicity; settings: salmonella enterica subsp. enterica serovar typhimurium
# [34] = Mutagenicity in Salmonella typhimurium TA1537 in presence of rat liver S9 fraction by AMES test; type: toxicity, subcellular; settings: salmonella enterica subsp. enterica serovar typhimurium
# [35] = Mutagenicity in Salmonella typhimurium TA1537 in absence of rat liver S9 fraction by AMES test; type: toxicity; settings: salmonella enterica subsp. enterica serovar typhimurium
# [36] = Mutagenicity in Escherichia coli WP2 uvrA in presence of rat liver S9 fraction by AMES test; type: toxicity, subcellular
# [37] = Mutagenicity in Escherichia coli WP2 uvrA in absence of rat liver S9 fraction by AMES test; type: toxicity
# Rattus norvegicus [38] = assay: Reversal of scopolamine induced amnesia in Lister Hooded rat at 0.3 to 10 mg/kg, po administered 25 mins prior to scopolamine injection and measured after 20 mins by rodent touch screen visual discrimination test; type: functional, organism-based; settings: dose 0.3-10 mg/kg
# [39] = Mutagenicity in Salmonella typhimurium TA1535 in absence of rat liver S9 fraction by AMES test; type: toxicity; settings: salmonella enterica subsp. enterica serovar typhimurium
# [40] = biological target: Sodium-dependent noradrenaline transporter (Homo sapiens) (UniProt P23975); assay: Displacement of [125I]RTI55 from human recombinant NET expressed in MDCK cells at 10 uM incubated for 3 hrs by radiometric scintillation counting analysis; type: cell-based
# [41] = biological target: Sodium-dependent dopamine transporter (Homo sapiens) (UniProt Q01959); assay: Displacement of [125I]RTI55 from human recombinant DAT expressed in CHO-S cells at 10 uM incubated for 3 hrs by radiometric scintillation counting analysis; type: cell-based
# Mus musculus [42] = assay: Cognitive enhancing effect in ip dosed scopolamine-induced amnesia NMRI mouse model assessed as increase in recognition index administered 30 mins prior to scopolamine injection by Y-maze test; type: functional; settings: 0.5 h, read-out: MED
# Rattus norvegicus [43] = assay: Cognitive enhancing effect in po dosed Hannover Wistar rat assessed as increase in novel object recognition index administered 30 mins prior to recognition trail by novel object recognition test; type: functional; settings: 0.5 h, read-out: MED
# T1 sequence (P36544 whole entry): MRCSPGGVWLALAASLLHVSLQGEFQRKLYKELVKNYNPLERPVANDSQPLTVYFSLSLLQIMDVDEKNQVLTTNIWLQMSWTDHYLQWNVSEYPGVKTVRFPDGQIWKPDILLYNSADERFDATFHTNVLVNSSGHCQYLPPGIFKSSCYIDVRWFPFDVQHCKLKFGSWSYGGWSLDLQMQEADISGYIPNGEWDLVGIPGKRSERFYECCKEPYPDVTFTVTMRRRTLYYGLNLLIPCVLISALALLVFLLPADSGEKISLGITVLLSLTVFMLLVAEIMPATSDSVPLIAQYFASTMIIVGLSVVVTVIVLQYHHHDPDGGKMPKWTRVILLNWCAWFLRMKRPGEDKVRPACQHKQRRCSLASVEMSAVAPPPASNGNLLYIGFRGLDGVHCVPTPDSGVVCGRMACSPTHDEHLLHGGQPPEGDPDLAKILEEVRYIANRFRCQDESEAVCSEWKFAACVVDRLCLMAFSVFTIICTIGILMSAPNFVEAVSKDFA
# Sodium-dependent noradrenaline transporter (Homo sapiens), sequence (P23975 whole entry): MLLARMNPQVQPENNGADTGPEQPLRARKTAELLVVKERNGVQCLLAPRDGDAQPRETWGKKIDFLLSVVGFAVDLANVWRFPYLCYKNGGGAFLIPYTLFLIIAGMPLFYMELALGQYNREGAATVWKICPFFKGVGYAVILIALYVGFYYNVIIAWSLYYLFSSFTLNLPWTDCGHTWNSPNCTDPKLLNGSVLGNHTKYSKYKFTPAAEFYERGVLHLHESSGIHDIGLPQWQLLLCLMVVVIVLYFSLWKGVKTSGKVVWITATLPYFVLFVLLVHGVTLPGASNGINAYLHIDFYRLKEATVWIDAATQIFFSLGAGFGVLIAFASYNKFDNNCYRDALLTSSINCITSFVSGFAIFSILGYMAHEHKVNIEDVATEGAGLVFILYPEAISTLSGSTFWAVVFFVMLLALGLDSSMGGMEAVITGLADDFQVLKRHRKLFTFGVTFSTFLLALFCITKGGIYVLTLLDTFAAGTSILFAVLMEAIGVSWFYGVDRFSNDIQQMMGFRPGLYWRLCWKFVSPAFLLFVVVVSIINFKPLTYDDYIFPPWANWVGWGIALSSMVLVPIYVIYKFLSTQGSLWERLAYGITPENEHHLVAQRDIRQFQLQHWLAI
# 5-hydroxytryptamine receptor 2B (Homo sapiens), sequence (P41595 whole entry): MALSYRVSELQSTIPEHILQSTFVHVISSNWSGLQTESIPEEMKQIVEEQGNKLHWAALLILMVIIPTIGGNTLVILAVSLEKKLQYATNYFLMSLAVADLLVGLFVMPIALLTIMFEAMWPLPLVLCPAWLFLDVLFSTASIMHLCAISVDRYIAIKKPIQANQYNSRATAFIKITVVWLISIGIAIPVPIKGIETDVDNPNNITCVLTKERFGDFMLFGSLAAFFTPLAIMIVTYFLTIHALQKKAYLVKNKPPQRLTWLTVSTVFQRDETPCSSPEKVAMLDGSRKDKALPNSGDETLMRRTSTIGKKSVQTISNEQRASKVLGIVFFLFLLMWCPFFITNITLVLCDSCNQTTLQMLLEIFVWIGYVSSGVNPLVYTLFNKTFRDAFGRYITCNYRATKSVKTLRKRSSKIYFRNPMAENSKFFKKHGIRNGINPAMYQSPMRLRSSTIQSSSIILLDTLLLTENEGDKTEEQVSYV
# Sodium-dependent dopamine transporter (Homo sapiens), sequence (Q01959 whole entry): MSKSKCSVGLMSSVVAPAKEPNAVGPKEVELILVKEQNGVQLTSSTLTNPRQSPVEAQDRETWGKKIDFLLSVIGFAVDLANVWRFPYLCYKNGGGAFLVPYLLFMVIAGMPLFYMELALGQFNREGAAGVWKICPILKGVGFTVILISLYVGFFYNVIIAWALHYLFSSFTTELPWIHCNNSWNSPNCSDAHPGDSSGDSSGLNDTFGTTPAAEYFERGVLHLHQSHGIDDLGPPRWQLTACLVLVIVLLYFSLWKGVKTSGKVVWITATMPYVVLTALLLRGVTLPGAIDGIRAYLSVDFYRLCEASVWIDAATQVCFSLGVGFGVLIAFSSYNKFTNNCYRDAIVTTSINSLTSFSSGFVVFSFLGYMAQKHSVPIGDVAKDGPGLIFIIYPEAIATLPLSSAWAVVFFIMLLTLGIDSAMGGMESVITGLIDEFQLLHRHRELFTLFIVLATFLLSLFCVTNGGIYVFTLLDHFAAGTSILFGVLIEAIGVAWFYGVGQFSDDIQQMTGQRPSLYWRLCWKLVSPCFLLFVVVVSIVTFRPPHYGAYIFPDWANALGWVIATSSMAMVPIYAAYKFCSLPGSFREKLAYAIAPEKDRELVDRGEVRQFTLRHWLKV
smiles,measurement,setting,value
Cc1ccc(Oc2ccc(C(=O)C(=O)Nc3ccc4c(ccn4C)c3)cn2)cc1,Activity,Mus musculus [1],Active
same,solubility kinetic,[2],3 µM
same,EC50,[3],130 nM
same,microsomal CLint at 1 µM,[4],51 µL/min/mg
same,microsomal CLint at 1 µM,[5],59 µL/min/mg
same,microsomal CLint at 1 µM,[6],33 µL/min/mg
same,concentration at 1 h,[7],108 nM
same,concentration at 1 h,[8],492 nM
same,concentration at 1 h,[9],1930 nM
same,concentration at 1 h,[10],104 nM
same,concentration at 1 h,[11],417 nM
same,concentration at 1 h,[12],1260 nM
same,Kp at 1 h,[13],1.05
same,Kp at 1 h,[14],1.17
same,Kp at 1 h,[15],1.53
Cc1ccc(O[C@H]2CC[C@@H](C(=O)NCc3ccc4c(ccn4C)c3)CC2)cc1,Activity,[16],16%
Cc1ccc(OC2CCCN(C(=O)C(=O)Nc3ccc4c(ccn4C)c3)CC2)cc1 (stereo not given),Activity,[16],13%
Cc1ccc(OC2CCN(C(=O)C(=O)Nc3ccc4c(ccn4C)c3)CC2)cc1,Activity,Mus musculus [1],Active
same,EC50,[3],120 nM
same,concentration at 1 h,[7],120 nM
same,concentration at 1 h,[8],297 nM
same,concentration at 1 h,[9],1290 nM
same,concentration at 1 h,[10],63 nM
same,concentration at 1 h,[11],170 nM
same,concentration at 1 h,[12],653 nM
same,Kp at 1 h,[13],1.95
same,Kp at 1 h,[14],1.74
same,Kp at 1 h,[15],1.96
O=C(NCc1ccc2[nH]ccc2c1)N1CC(COc2ccc(C(F)(F)F)cc2)C1,Activity,[17],Non-Toxic
same,Kp at 35 min,[18],1.38
same,Kp at 35 min,[19],1.4
same,Kp at 35 min,[20],1.43
same,"Papp A→B at 2 h, 1 µM",[21],55 ×10⁻⁶ cm/s
same,Activity,Mus musculus [1],Active
same,inhibition,[22],> 50%
same,Activity,Rattus norvegicus [23],Active
same,concentration at 1 h,[7],673 nM
same,concentration at 1 h,[8],2210 nM
same,concentration at 1 h,[9],9920 nM
same,concentration at 1 h,[10],647 nM
same,concentration at 1 h,[11],2270 nM
same,concentration at 1 h,[12],9470 nM
same,Kp at 1 h,[13],1.04
same,Kp at 1 h,[14],0.99
same,Kp at 1 h,[15],1.06
same,concentration at 35 min,[24],1010 nM
same,concentration at 35 min,[25],3110 nM
same,concentration at 35 min,[26],11100 nM
same,concentration at 35 min,[27],746 nM
same,concentration at 35 min,[28],2220 nM
same,concentration at 35 min,[29],8020 nM
same,Activity,[30],Non-Toxic
same,Activity,[31],Non-Toxic
same,Activity,[32],Non-Toxic
same,Activity,[33],Non-Toxic
same,Activity,[34],Non-Toxic
same,Activity,[35],Non-Toxic
same,Activity,[36],Non-Toxic
same,Activity,[37],Non-Toxic
same,Activity,Rattus norvegicus [38],Active
same,Activity,[39],Non-Toxic
same,inhibition,[40],> 50%
same,inhibition,[41],> 50%
same,minimal effective dose,Mus musculus [42],1 mg/kg
same,minimal effective dose,Rattus norvegicus [43],1 mg/kg
